Data from patent US10202391B2, “Chemical compounds” (AstraZeneca AB, priority 2015, dated 2019).

What was measured:
[1] = tested on: phospho-p90RSK in A375 cell line; assay: A375 Phospho-p90RSK Cellular Assay; type: cell-based, human; conditions: Homo sapiens, A375 cells, 2 hours incubation
Protocol: (§1) All compounds or DMSO (dimethyl sulphoxide) for the ERK2 Mass Spectrometry and A375 phospho-p90RSK assays were dispensed from source plates containing compounds at 10 mM in 100% (v/v) DMSO or 100% DMSO, directly into assay plates using an Echo 555 Acoustic dispenser (Labcyte Inc™). Depending on the assay, two separate plate preparations were followed. In Workflow A, 10 mM compound stocks were diluted 1:100 using a fixed-tip 96-head Agilent VPrep liquid handler (Agilent Technologies, Santa Clara, Calif.) to give four intermediate dilutions (10 mM, 100 μM, 1 μM, 10 nM). In Workflow B, 10 mM compound stocks were diluted 1:10 using a Tecan Freedom Evo (Tecan Group Ltd., Switzerland), and then 1:100 using the Echo 555 and Labcyte LX to produce three intermediate dilutions across three Labcyte qualified source plates (1 mM, 10 μM, 100 nM). These intermediate dilution plates were then used by the Echo 555 to generate final assay-ready compound plates with a 12 point dose range (10, 3, 1, 0.25, 0.1, 0.03, 0.01, 0.0025, 0.001, 0.0003, 0.0001, 0.0000125 μM) in order to calculate compound IC50s, with a total DMSO concentration in the assay of 1%. For the ERK2 Mass Spectrometry assay Workflow B was used. For the A375 phospho-p90RSK cell assay, the intermediate 1:100 dilution plate described in Workflow A was used by the Echo to dispense compounds and DMSO directly into the cell plates with a 12 point dose range (30, 10, 3.125, 1.25, 0.3, 0.1, 0.03125, 0.0125, 0.003, 0.001, 0.0003125, 0.00003 μM) in order to calculate compound IC50's, with a total DMSO concentration in the assay of 0.3%.
A375 Phospho-p90RSK Cellular Assay
A375 cells were cultured in cell media composed of DMEM (Dulbecco's modified Eagle's medium), 10% (v/v) Foetal Calf Serum and 1% (v/v) L-Glutamine. After harvesting, cells were dispensed into black, 384-well Costar plates (#3712, Corning) to give 2400 cells per well in a total volume of 40 μl cell media, and were incubated overnight at 37° C., 90% relative humidity and 5% CO2 in a rotating incubator. Test compounds and reference controls were dosed directly into the cell plates using a Labcyte Echo 555 acoustic dispenser. The cell plates were then incubated for 2 hours at 37° C. before being fixed by the addition of 20 μl 12% formaldehyde in PBS/A (4% final concentration), followed by a 20 minute room temperature incubation, and then a 2× wash with 150 μl PBS/A (phosphate buffered saline containing albumin) using a BioTek ELx405 platewasher. Cells were permeabilised with 20 μl 0.1% Triton X-100 in PBS/A for 20 minutes at room temperature, and then washed 1× with 100 μl PBS/A. Primary phospho-p90RSK (Thr359) (D1E9) rabbit monoclonal antibody (#8753, Cell Signaling Technology) was diluted 1:1000 in assay buffer (0.05% (v/v) Tween, 5% (v/v) Foetal Calf Serum, in PBS/A), 20 μl added per well, and plates were incubated at 4° C. overnight. Cell plates were washed 2× with 200 μl PBS/T (phosphate buffered saline containing Tween-20), then 20 μl 1:500 dilution in assay buffer of Alexa Fluor® 647 goat anti-rabbit IgG secondary antibody (#A31573, Molecular Probes, Life Technologies), with a 1:5000 dilution of Hoechst 33342, was added per well. Following a 90 minute incubation at room temperature, plates were washed 2× with 200 μl PBS/T, and 40 μl PBS/A was added per well. Stained cell plates were covered with black lid seals, and then read on a Cellomics ArrayScan™ VTI imaging platform (Thermo Scientific), using an XF53 filter with 10× objective, with a LED light source set-up to analyse nuclear staining with Hoechst 33342 (405 nm) and secondary antibody staining of phospho-p90RSK (647 nm). Data was analysed and IC50's were calculated using Genedata Screener® software.

ERK2 = biological target: T1, ERK2 (Homo sapiens, UniProt P28482); assay: ERK2 Rapidfire Mass Spectrometry Inhibition of Catalysis Assay; type: biochemical; conditions: 1.2 nM ERK2, 16 μM Erktide, 120 μM ATP (measured Km), 15 minute pre-incubation; read-out: ERK2 Mass Spectrometry Enzyme IC50
T1 construct: made in house
T1 sequence (P28482 whole entry): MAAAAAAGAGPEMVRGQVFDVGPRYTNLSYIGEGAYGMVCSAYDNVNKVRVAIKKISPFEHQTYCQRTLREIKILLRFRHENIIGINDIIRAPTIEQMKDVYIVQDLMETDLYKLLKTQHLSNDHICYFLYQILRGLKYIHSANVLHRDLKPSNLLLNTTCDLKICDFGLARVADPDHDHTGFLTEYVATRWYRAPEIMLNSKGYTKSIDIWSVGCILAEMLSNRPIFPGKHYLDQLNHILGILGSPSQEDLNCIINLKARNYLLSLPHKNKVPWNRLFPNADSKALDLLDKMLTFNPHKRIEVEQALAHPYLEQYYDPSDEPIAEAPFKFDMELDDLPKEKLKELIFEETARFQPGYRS
Protocol: as §1
ERK2 Rapidfire Mass Spectrometry Inhibition of Catalysis Assay
MEK U911-activated ERK2 protein was expressed and purified in-house. Enzyme and substrate solutions were made up in assay buffer consisting of 50 mM Tris (pH 7.5), 10 mM MgCl2, 0.1 mM EGTA (ethylene glycol tetraacetic acid), 10 mM DTT (dithiothreitol) and 0.01% (v/v) CHAPS (3-[(3-Cholamidopropyl)dimethylammonio]-1-propanesulfonate). 1.2 nM ERK2 protein was prepared in assay buffer and 10 μl was dispensed into each well of a polypropylene, 384-well plate (#781201, Greiner) containing test and reference control compounds. […] The reaction was allowed to progress for 20 minutes at room temperature before being quenched by the addition of 80 al 1% (v/v) formic acid. The assay plates were then run on the RapidFire Mass Spectrometry platform (Agilent) to measure substrate (unphosphorylated Erktide) and product (phosphorylated Erktide) levels. Data was analysed and IC50's (half maximal inhibitory concentration) were calculated using Genedata Screener® software.

Question: Which results are given for `C[C@H]1Cn2cc(-c3nc(Nc4ccnn4C)ncc3Cl)nc2C(=O)N1Cc1ccc(F)c(F)c1` [Example 6, (S)-2-(5-Chloro-2-((1-methyl-1H-pyrazol-5-yl)amino)pyrimidin-4-yl)-7-(3,4-difluorobenzyl)-6-methyl-6,7-dihydroimidazo[1,2-a]pyrazin-8(5H)-one]?
Answer: IC50 ([1]; A-375): 25 nM; IC50 (ERK2): 0.6 nM

Question: `COC[C@H]1Cn2cc(-c3nc(Nc4ccnn4C)ncc3C)nc2C(=O)N1Cc1cccc(OC)c1` [Example 41, (R)-7-(3-Methoxybenzyl)-6-(methoxymethyl)-2-(5-methyl-2-((1-methyl-1H-pyrazol-5-yl)amino)pyrimidin-4-yl)-6,7-dihydroimidazo[1,2-a]pyrazin-8(5H)-one] was tested. Which IC50 ([1]; A-375) did it give?
Answer: The IC50 was 130 nM.

Question: And the IC50 (ERK2)?
Answer: Its IC50 is 1.5 nM.

Question: Which results are given for `COC[C@H]1Cn2cc(-c3nc(Nc4ccnn4C)ncc3C)nc2C(=O)N1Cc1cc(F)cc(F)c1` [Example 40, (R)-7-(3,5-difluorobenzyl)-6-(methoxymethyl)-2-(5-methyl-2-((1-methyl-1H-pyrazol-5-yl)amino)pyrimidin-4-yl)-6,7-dihydroimidazo[1,2-a]pyrazin-8(5H)-one]?
Answer: IC50 ([1]; A-375): 32 nM; IC50 (ERK2): 1.1 nM

Question: Which IC50 ([1]; A-375) does the source give for `C[C@H]1Cn2cc(-c3ccnc(Nc4ccnn4C)n3)nc2C(=O)N1Cc1ccc(F)c(Cl)c1` [Example 3, (S)-7-(3-Chloro-4-fluorobenzyl)-6-methyl-2-(2-((1-methyl-1H-pyrazol-5-yl)amino)pyrimidin-4-yl)-6,7-dihydroimidazo[1,2-a]pyrazin-8(5H)-one] here?
Answer: The IC50 was 81 nM.

Question: What about the IC50 (ERK2) of the same compound?
Answer: Its IC50 is 0.5 nM.

Question: Which IC50 ([1]; A-375) does the source give for `Cc1cnc(Nc2ccnn2C)nc1-c1cn2c(n1)C(=O)N(Cc1cc(F)cc(F)c1)[C@@H](C)C2` [Example 22, (S)-7-(3,5-Difluorobenzyl)-6-methyl-2-(5-methyl-2-((1-methyl-1H-pyrazol-5-L)amino)pyrimidin-4-yl)-6,7-dihydroimidazo[1,2-a]pyrazin-8(5H)-one] here?
Answer: The IC50 was 19 nM.

Question: What about the IC50 (ERK2) of the same compound?
Answer: The IC50 was 0.8 nM.

Question: `COC[C@@H]1Cn2cc(-c3nc(Nc4ccnn4C)ncc3C)nc2C(=O)N1Cc1ccc(F)c(F)c1` [Example 35, Ethanesulfonic acid adduct of (S)-7-(3,4-difluorobenzyl)-6-(methoxymethyl)-2-(5-methyl-2-((1-methyl-1H-pyrazol-5-yl)amino)pyrimidin-4-yl)-6,7-dihydroimidazo[1,2-a]pyrazin-8(5H)-one] was tested. Which IC50 ([1]; A-375) did it give?
Answer: The IC50 was 93 nM.

Question: With `Cc1cnc(Nc2ccnn2C)nc1-c1cn2c(n1)C(=O)N(Cc1cccc(C(F)(F)F)n1)CC2` [Example 5, 2-(5-Methyl-2-((1-methyl-1H-pyrazol-5-yl)amino)pyrimidin-4-yl)-7-((6-(trifluoromethyl)pyridin-2-yl)methyl)-6,7-dihydroimidazo[1,2-a]pyrazin-8(5H)-one] as the compound, how does the IC50 ([1]; A-375) read?
Answer: Its IC50 is 110 nM.

Question: And the IC50 (ERK2)?
Answer: The IC50 was 2 nM.

Question: How did the IC50 ([1]; A-375) turn out when `COc1cc(CN2C(=O)c3nc(-c4nc(Nc5ccnn5C)ncc4C)cn3C[C@@H]2C)ccc1F` [Example 24, (S)-7-(4-Fluoro-3-methoxybenzyl)-6-methyl-2-(5-methyl-2-((1-methyl-1H-pyrazol-5-yl)amino)pyrimidin-4-yl)-6,7-dihydroimidazo[1,2-a]pyrazin-8(5H)-one] was run?
Answer: Its IC50 is 84 nM.

Question: What about the IC50 (ERK2) of the same compound?
Answer: The IC50 was 0.5 nM.

Question: What does the source list for `Cc1cnc(Nc2ccnn2C)nc1-c1cn2c(n1)C(=O)N(Cc1cccc(C(F)F)n1)CC2` [Example 15, 7-((6-(Difluoromethyl)pyridin-2-yl)methyl)-2-(5-methyl-2-((1-methyl-1H-pyrazol-5-yl)amino)pyrimidin-4-yl)-6,7-dihydroimidazo[1,2-a]pyrazin-8(5H)-one]?
Answer: IC50 ([1]; A-375): 150 nM; IC50 (ERK2): 0.6 nM

Question: With `COC[C@H]1Cn2cc(-c3nc(Nc4ccnn4C)ncc3C)nc2C(=O)N1Cc1cccc(C(F)F)c1` [Example 38, (R)-7-(3-(Difluoromethyl)benzyl)-6-(methoxymethyl)-2-(5-methyl-2-((1-methyl-1H-pyrazol-5-yl)amino)pyrimidin-4-yl)-6,7-dihydroimidazo[1,2-a]pyrazin-8(5H)-one] as the compound, how does the IC50 ([1]; A-375) read?
Answer: The IC50 was 8 nM.

Question: What about the IC50 (ERK2) of the same compound?
Answer: Its IC50 is 0.7 nM.

Question: Which IC50 ([1]; A-375) does the source give for `Cc1cnc(Nc2ccnn2C)nc1-c1cn2c(n1)C(=O)N(Cc1ccnc(C(F)(F)F)c1)[C@@H](C)C2` [Example 30, (S)-6-Methyl-2-(5-methyl-2-((1-methyl-1H-pyrazol-5-yl)amino)pyrimidin-4-yl)-7-((2-(trifluoromethyl)pyridin-4-yl)methyl)-6,7-dihydroimidazo[1,2-a]pyrazin-8(5H)-one] here?
Answer: Its IC50 is 200 nM.

Question: What about the IC50 (ERK2) of the same compound?
Answer: Its IC50 is 0.7 nM.

Question: With `Cc1cnc(Nc2ccnn2C)nc1-c1cn2c(n1)C(=O)N(Cc1cccc(C(F)(F)F)n1)[C@H](C)C2` [Example 36, (R)-6-Methyl-2-(5-methyl-2-((1-methyl-1H-pyrazol-5-yl)amino)pyrimidin-4-yl)-7-((6-(trifluoromethyl)pyridin-2-yl)methyl)-6,7-dihydroimidazo[1,2-a]pyrazin-8(5H)-one] as the compound, how does the IC50 ([1]; A-375) read?
Answer: The IC50 was 51 nM.

Question: And the IC50 (ERK2)?
Answer: Its IC50 is 1.4 nM.

Question: How did the IC50 ([1]; A-375) turn out when `C[C@H]1Cn2cc(-c3nc(Nc4ccnn4C)ncc3Cl)nc2C(=O)N1Cc1cccc(C(F)(F)F)n1` [Example 10] was run?
Answer: The IC50 was 55 nM.

Question: What about the IC50 (ERK2) of the same compound?
Answer: Its IC50 is 1.1 nM.

Question: For `Cc1cnc(Nc2ccnn2C)nc1-c1cn2c(n1)C(=O)N(Cc1ccc(F)c(F)c1)CC2` [Example 33, 7-(3,4-Difluorobenzyl)-2-(5-methyl-2-((1-methyl-1H-pyrazol-5-yl)amino)pyrimidin-4-yl)-6,7-dihydroimidazo[1,2-a]pyrazin-8(5H)-one], which IC50 ([1]; A-375, 2 h) is on record?
Answer: The IC50 was 31 nM.

Question: And the IC50 (ERK2)?
Answer: Its IC50 is 0.8 nM.

Question: Which IC50 ([1]; A-375) does the source give for `COc1cccc(CN2C(=O)c3nc(-c4nc(Nc5ccnn5C)ncc4C)cn3C[C@@H]2C)c1` [Example 23, (S)-7-(3-Methoxybenzyl)-6-methyl-2-(5-methyl-2-((1-methyl-1H-pyrazol-5-yl)amino)pyrimidin-4-yl)-6,7-dihydroimidazo[1,2-a]pyrazin-8(5H)-one] here?
Answer: The IC50 was 40 nM.

Question: And the IC50 (ERK2)?
Answer: Its IC50 is 0.6 nM.

Question: With `COC[C@H]1Cn2cc(-c3nc(Nc4ccnn4C)ncc3C)nc2C(=O)N1Cc1cccc(C(F)(F)F)n1` [Example 39, (R)-6-(Methoxymethyl)-2-(5-methyl-2-((1-methyl-1H-pyrazol-5-yl)amino)pyrimidin-4-yl)-7-((6-(trifluoromethyl)pyridin-2-yl)methyl)-6,7-dihydroimidazo[1,2-a]pyrazin-8(5H)-one] as the compound, how does the IC50 ([1]; A-375) read?
Answer: Its IC50 is 70 nM.

Question: And the IC50 (ERK2)?
Answer: The IC50 was 1.8 nM.

Question: Which results are given for `Cc1cnc(Nc2ccnn2C)nc1-c1cn2c(n1)C(=O)N(Cc1cc(C(F)F)ccn1)[C@@H](C)C2` [Example 31, (S)-7-((4-(Difluoromethyl)pyridin-2-yl)methyl)-6-methyl-2-(5-methyl-2-((1-methyl-1H-pyrazol-5-yl)amino)pyrimidin-4-yl)-6,7-dihydroimidazo[1,2-a]pyrazin-8(5H)-one]?
Answer: IC50 ([1]; A-375): 140 nM; IC50 (ERK2): 0.8 nM
